The term melting point denotes the temperature, or range, at which the solid turns liquid.

With `Cc1cc(C#N)cc(C)c1Oc1cc(CC(=O)Nc2ccccc2Cl)ccc1Cl` [Compound I-68, 2-[4-Chloro-3-(4-cyano-2,6-dimethyl-phenoxy)-phenyl]-N-(2-chloro-phenyl)-acetamide], the melting point lay within 183.9 to 185.1 °C.
Turning to `N#Cc1cc(C#N)cc(Oc2cc(CC(=O)Nc3ccc(S(N)(=O)=O)cc3)ccc2Cl)c1` [Compound I-2, 2-[4-Chloro-3-(3,5-dicyano-phenoxy)-phenyl]-N-(4-sulfamoyl-phenyl)-acetamide], the melting point is 218 to 219 °C.
`Cc1cc(S(N)(=O)=O)ccc1NC(=O)Cc1ccc(Cl)c(C(=O)c2cc(Cl)ccc2Cl)c1` [Compound I-249, 2-[4-Chloro-3-(2,5-dichloro-benzoyl)-phenyl]-N-(2-methyl-4-sulfamoyl-phenyl)-acetamide] displayed a melting point of 214.9 to 218.8 °C.
Next, `Cc1ccc(CC(=O)Nc2ccccc2Cl)cc1Oc1cc(Cl)ccc1Br` [Compound I-33, 2-[3-(2-Bromo-5-chloro-phenoxy)-4-methyl-phenyl]-N-(2-chloro-phenyl)-acetamide]: 133.9 to 135.9 °C; `Cc1cc(CC(=O)Nc2ccc(S(N)(=O)=O)cc2)cc(Oc2cc(C#N)ccc2Cl)c1` [Compound I-146, 2-[3-(2-Chloro-5-cyano-phenoxy)-5-methyl-phenyl]-N-(4-sulfamoyl-phenyl)-acetamide]: 235.9 to 236.7 °C.
Next, `CCc1ccc(CC(=O)Nc2ccc(S(N)(=O)=O)cc2)cc1Oc1cc(Cl)cc(Br)c1` [Compound I-22, 2-[3-(3-Bromo-5-chloro-phenoxy)-4-ethyl-phenyl]-N-(4-sulfamoyl-phenyl)-acetamide]: 216.1 to 221.3 °C; `N#Cc1cc(Cl)cc(Oc2c(Br)ccc(CC(=O)Nc3ccc(S(N)(=O)=O)cc3Cl)c2F)c1` [Compound I-109, 2-[4-Bromo-3-(3-chloro-5-cyano-phenoxy)-2-fluoro-phenyl]-N-(2-chloro-4-sulfamoyl-phenyl)-acetamide]: 165 to 166.6 °C.
Next, `Cc1ccc(CC(=O)Nc2ccc(C(=O)O)cc2Cl)c(F)c1Oc1cc(C#N)cc(C(F)F)c1` [Compound I-110, 3-Chloro-4-{2-[3-(3-cyano-5-difluoromethyl-phenoxy)-2-fluoro-4-methyl-phenyl]-acetylamino}-benzoic acid]: 216.9 to 218.3 °C.
Molecule `Cc1cc(CC(=O)Nc2ccc(S(N)(=O)=O)cc2Cl)cc(Oc2cc(Cl)cc(C#N)c2)c1` [Compound I-143, 2-[3-(3-Chloro-5-cyano-phenoxy)-5-methyl-phenyl]-N-(2-chloro-4-sulfamoyl-phenyl)-acetamide] returned a melting point of 194.1 to 195.9 °C.
With `CCN(CC)CC(=O)NS(=O)(=O)c1ccc(NC(=O)Cc2ccc(Cl)c(Oc3cc(Cl)cc(C#N)c3)c2F)c(Cl)c1.Cl`, the melting point is 195.3 to 197.2 °C.
`Cc1cc(N2CC[S+]([O-])CC2)ccc1NC(=O)Cc1ccc(C)c(Oc2cc(Cl)cc(C#N)c2)c1` [Compound I-160, 2-[3-(3-Chloro-5-cyano-phenoxy)-4-methyl-phenyl]-N-[2-methyl-4-(1-oxo-1λ^4-thiomorpholin-4-yl)-phenyl]-acetamide]: the melting point lay within 181.3 to 182.1 °C.
Regarding `CCc1ccc(CC(=O)Nc2ccc(S(=O)(=O)NC)cc2)cc1Oc1cc(Cl)cc(C#N)c1` [Compound I-48, 2-[3-(3-Chloro-5-cyano-phenoxy)-4-ethyl-phenyl]-N-(4-methylsulfamoyl-phenyl)-acetamide], the melting point lay within 149.1 to 151.3 °C.
To `N#Cc1cc(Cl)cc(Oc2cc(CC(=O)Nc3ccc(S(N)(=O)=O)cc3)ccc2Cl)c1` [Compound I-1, 2-[4-Chloro-3-(3-chloro-5-cyano-phenoxy)-phenyl]-N-(4-sulfamoyl-phenyl)-acetamide] belongs 210.5 to 214 °C; to `COCC(=O)N(C)S(=O)(=O)c1ccc(NC(=O)Cc2ccc(Cl)c(Oc3cc(Cl)cc(C#N)c3)c2F)c(Cl)c1` [Compound I-171, 2-[4-Chloro-3-(3-chloro-5-cyano-phenoxy)-2-fluoro-phenyl]-N-{2-chloro-4-[(2-methoxy-acetyl)-methyl-sulfamoyl]-phenyl}-acetamide], 183.2 to 185.5 °C; to `CCc1ccc(CC(=O)Nc2ccc(S(N)(=O)=O)cc2)cc1Oc1cc(Cl)cc(C#N)c1` [Compound I-45, 2-[3-(3-Chloro-5-cyano-phenoxy)-4-ethyl-phenyl]-N-(4-sulfamoyl-phenyl)-acetamide], 170.7 to 172.4 °C.
To `Cc1cc(CC(=O)Nc2ccc(S(N)(=O)=O)cc2C)cc(C(=O)c2ccccc2Cl)c1` [Compound I-256, 2-[3-(2-Chloro-benzoyl)-5-methyl-phenyl]-N-(2-methyl-4-sulfamoyl-phenyl)-acetamide] belongs 207.7 to 209.3 °C.
`CCCC(=O)N(C)S(=O)(=O)c1ccc(NC(=O)Cc2ccc(Cl)c(Oc3cc(Cl)cc(C#N)c3)c2F)c(Cl)c1` [Compound I-139, N-[4-(Butyryl-methyl-sulfamoyl)-2-chloro-phenyl]-2-[4-chloro-3-(3-chloro-5-cyano-phenoxy)-2-fluoro-phenyl]-acetamide] returned a melting point of 186.9 to 187.6 °C.
Next, `COc1ccc(CC(=O)Nc2ccccc2)cc1Oc1cc(Cl)cc(C#N)c1` [Compound I-210, 2-[3-(3-Chloro-5-cyano-phenoxy)-4-methoxy-phenyl]-N-phenyl-acetamide]: 171.3 to 171.6 °C; `CCc1ccc(CC(=O)Nc2ccccc2Cl)cc1Oc1cc(Br)cc(F)c1Cl` [Compound I-41, 2-[3-(5-Bromo-2-chloro-3-fluoro-phenoxy)-4-ethyl-phenyl]-N-(2-chloro-phenyl)-acetamide]: 146.6 to 147.2 °C; `CCc1ccc(CC(=O)Nc2ccc(S(N)(=O)=O)cc2)cc1Oc1cc(Cl)ccc1C#N` [Compound I-17, 2-[3-(5-Chloro-2-cyano-phenoxy)-4-ethyl-phenyl]-N-(4-sulfamoyl-phenyl)-acetamide]: 198.1 to 202.6 °C.
Next, `CCC(=O)NS(=O)(=O)c1ccc(NC(=O)Cc2ccc(Cl)c(Oc3cc(Cl)cc(C#N)c3)c2F)c(Cl)c1.[Na]`: 155.4 to 157.5 °C; `Cc1cc(S(=O)(=O)NCCN2CCOCC2)ccc1NC(=O)Cc1ccc(C)c(Oc2cc(Cl)cc(C#N)c2)c1` [Compound I-118, 2-[3-(3-Chloro-5-cyano-phenoxy)-4-methyl-phenyl]-N-[2-methyl-4-(2-morpholin-4-yl-ethylsulfamoyl)-phenyl]-acetamide]: 177 to 181 °C.
For the molecule `CCc1ccc(CC(=O)Nc2ccc(S(N)(=O)=O)cc2Cl)cc1Oc1cc(C#N)cc(C(F)F)c1` [Compound I-140, N-(2-Chloro-4-sulfamoyl-phenyl)-2-[3-(3-cyano-5-difluoromethyl-phenoxy)-4-ethyl-phenyl]-acetamide], the melting point is 191.8 to 192.5 °C.
Next, `NS(=O)(=O)c1ccc(NC(=O)Cc2ccc(Cl)c(C(=O)c3cc(Cl)ccc3Cl)c2)c(Cl)c1` [Compound I-253, 2-[4-Chloro-3-(2,5-dichloro-benzoyl)-phenyl]-N-(2-chloro-4-sulfamoyl-phenyl)-acetamide]: 197 to 199.6 °C.
`Cc1cc(CC(=O)Nc2ccccc2Cl)cc(C(=O)c2cccc(Cl)c2)c1` [Compound I-262, 2-[3-(3-Chloro-benzoyl)-5-methyl-phenyl]-N-(2-chloro-phenyl)-acetamide] came in with a melting point of 113 to 113.8 °C.
To `Cc1cc(N2CCCS2(=O)=O)ccc1NC(=O)Cc1ccc(C)c(Oc2cc(Cl)cc(C#N)c2)c1` [Compound I-170, 2-[3-(3-Chloro-5-cyano-phenoxy)-4-methyl-phenyl]-N-[4-(1,1-dioxo-1λ^6-isothiazolidin-2-yl)-2-methyl-phenyl]-acetamide] belongs 182.5 to 184.6 °C; to `COc1ccc(CC(=O)Nc2ccc(S(N)(=O)=O)cc2)cc1Oc1cc(C#N)ccc1Cl` [Compound I-65, 2-[3-(2-Chloro-5-cyano-phenoxy)-4-methoxy-phenyl]-N-(4-sulfamoyl-phenyl)-acetamide], 252.3 to 254.3 °C.
To `Cc1cc(N(C)S(C)(=O)=O)ccc1NC(=O)Cc1ccc(C)c(Oc2cc(Cl)cc(C#N)c2)c1` [Compound I-238, 2-[3-(3-Chloro-5-cyano-phenoxy)-4-methyl-phenyl]-N-[4-(methanesulfonyl-methyl-amino)-2-methyl-phenyl]-acetamide] belongs 184 to 184.8 °C; to `Cc1cc(CC(=O)Nc2ccc(S(N)(=O)=O)cc2Cl)cc(Oc2cc(Cl)cc(C#N)c2)c1C` [Compound I-184, 2-[3-(3-Chloro-5-cyano-phenoxy)-4,5-dimethyl-phenyl]-N-(2-chloro-4-sulfamoyl-phenyl)-acetamide], 224.3 to 225.7 °C.
Next, `CCc1ccc(CC(=O)Nc2ccc(S(N)(=O)=O)cc2)cc1Oc1c(Cl)cccc1Cl` [Compound I-20, 2-[3-(2,6-Dichloro-phenoxy)-4-ethyl-phenyl]-N-(4-sulfamoyl-phenyl)-acetamide]: 222.5 to 225 °C.
Turning to `NS(=O)(=O)c1ccc(NC(=O)Cc2ccc(Cl)c(Oc3cc(Cl)cc(Cl)c3Cl)c2F)cc1` [Compound I-10, 2-[4-Chloro-2-fluoro-3-(2,3,5-trichloro-phenoxy)-phenyl]-N-(4-sulfamoyl-phenyl)-acetamide], the melting point was 247 to 249.9 °C.
`Cc1ccc(CC(=O)Nc2ccc(S(N)(=O)=O)cc2)cc1Oc1cc(Cl)ccc1Br` [Compound I-30, 2-[3-(2-Bromo-5-chloro-phenoxy)-4-methyl-phenyl]-N-(4-sulfamoyl-phenyl)-acetamide] showed a melting point of 236.9 to 239.3 °C.
To `CCc1ccc(CC(=O)Nc2ccc(S(N)(=O)=O)cc2)cc1Oc1cc(Cl)ccc1Cl` [Compound I-19, 2-[3-(2,5-Dichloro-phenoxy)-4-ethyl-phenyl]-N-(4-sulfamoyl-phenyl)-acetamide] belongs 190 to 193.4 °C; to `COc1cc(CC(=O)Nc2ccc(S(N)(=O)=O)cc2C)cc(Oc2cc(C#N)ccc2Cl)c1` [Compound I-103, 2-[3-(2-Chloro-5-cyano-phenoxy)-5-methoxy-phenyl]-N-(2-methyl-4-sulfamoyl-phenyl)-acetamide], 179.8 to 184 °C.
